Where two headings read alike, the source gives them in different places.
Assays:
[1] = assay type: in vivo; conditions: female rats, observed 4 days
Method: An animal study was conducted with 30 female rats with weights ranging from 250-300g and acclimated for 5 days. All rats were dosed with intraperitoneal injections using 18 gauge needles. The rats were broken into 6 groups. A negative control (NC-1) dosed 5 rats with 5mL of normal saline solution. […] A positive control (PC-1) dosed 5 rats with 2.5 million EU in a 5mL saline solution. A second positive control (PC-2) was conducted dosing 5 rats with 5 million endotoxin units in a 5mL normal saline solution. Two experimental test groups were conducted.
The negative control samples also had no toxicity. Table 21. Results of animal study with CaSt dosing

[2] = Testing of various sources of LPS: detection of LPS after adding CaSt to spiked water; assay type: biochemical
Method: Therefore, for the methods described above, the activity of endotoxin was tested with various sources of endotoxin. Laboratory grown endotoxin is purified while natural endotoxin will be present with other substances such as proteins and phospholipids.
The laboratory grown endotoxin used in this experiment was supplied by Charles River Laboratories.
Natural airborne endotoxin was captured using an electret filter. Electret filters are produced from dielectric polymer fibers that develop an electrical charge when air flows past them, capturing the endotoxin along with other particles. The endotoxin was extracted from the filter by placing the filter in endotoxin free water for an extended period of time.
Two other natural sources of endotoxin were obtained from water samples in the surrounding environment. One source was a pool of sitting rain water and other being a small puddle on the side of the Raritan River. The sitting rain water (SRW) was purified via chlorination and 0.2 µm filter. The Raritan River Water (RRW) was not altered in anyway. The same testing procedure was conducted for all sources of endotoxin.
Table 11. Detection of LPS after adding CaSt to test tubes containing water spiked with LPS

[3] = Effect of storage (dwell time) on efficacy of pre-mixed CaSt suspensions, sonicated or vortexed; assay type: biochemical; conditions: 0.02 g CaSt; for EU After: 15 minutes
Method: Efficacy of pre-mixed CaSt suspensions (sonicated and vortexed) was tested, comparing efficacy of immediately prepared suspensions with suspensions having shelf life or dwell time of 90 min, 5 days, and 1 month prior to contact with endotoxin containing solutions.
10 mL SRW was then introduced to the sonicated CaSt mixture. It was then vortexed for 5 seconds to fully incorporate the sonicated CaSt. The mixture was then tested after 15 minutes of interaction to measure the percent decrease of endotoxin.
10 mL SRW was then introduced to the vortexed CaSt mixture. It was then vortexed for 5 seconds to fully incorporate the sonicated CaSt. The mixture was then tested after 15 minutes of interaction to measure the percent decrease of endotoxin.
These mixtures were then tested on the Charles River MCS at a dilution of 1:2000 after 15 minutes of interaction.
Testing of suspensions having shelf life or dwell time of 90 min, 5 days, and 1 month prior to contact with endotoxin containing solutions.
Test samples were prepared as described above, sonicated and vortexed, but were subjected to shelf life or dwell time of 90 min, 5 days, and 1 month prior to contact with endotoxin containing solution (SRW). After dwell time exposure, similarly to the immediate mixing test above, 10 mL SRW was then introduced to the sonicated or vortexed CaSt mixture. It was then vortexed for 5 seconds to fully incorporate the sonicated CaSt. The mixture was then tested after 15 minutes of interaction to measure the percent decrease of endotoxin. These mixtures were then tested on the Charles River MCS at a dilution of 1:2000 after 15 minutes of interaction.
*The 1 month shelf life sample was only tested at 0.04g CaSt and measured the percent removal after 15 minutes of interaction as well as 30 minutes after interaction.

[4] = Charles River Standard, 0.018 g Calcium Stearate, 8330 EU spiked
[5] = Charles River Standard, 0.05 g Calcium Stearate, 8330 EU spiked
[6] = Charles River Standard, 0.15 g Calcium Stearate, 8330 EU spiked
[7] = Charles River Standard, 0.25 g Calcium Stearate, 8330 EU spiked
[8] = Dust Filter Extraction Water, 0.01 g Calcium Stearate, 9280 EU spiked
[9] = Dust Filter Extraction Water, 0.25 g Calcium Stearate, 9280 EU spiked
[10] = RRW, 0.01 g Calcium Stearate, 4340 EU spiked
[11] = RRW, 0.1 g Calcium Stearate, 4340 EU spiked
[12] = RRW, 0.25 g Calcium Stearate, 4340 EU spiked
[13] = SRW, 0.01 g Calcium Stearate, 11100 EU spiked

Q: For `CCCCCCCCCCCCCCCCCC(=O)O` [Calcium Stearate], which “Results (toxicity)” value ([1]; NC-2: 0.2 g Calcium Stearate in 5.0 mL normal saline, intraperitoneal, no endotoxin) is on record?
A: Its value is “No Toxicity Observed”.

Q: And the “Results (toxicity)” value ([1]; T-1: 2,500,000 EU + 0.2g Calcium Stearate + normal saline (5.0 mL) dosed IP)?
A: Its value is “No Toxicity Observed”.

Q: And the “Results (toxicity)” value ([1]; T-1: 2,500,000 EU + 0.2g Calcium Stearate + normal saline (5.0 mL) dosed IP, listed as calcium stearate)?
A: Its value is “no toxicity or adverse effects”.

Q: What about the “Results (toxicity)” value ([1]; T-2: 5,000,000 EU + 0.2g Calcium Stearate + normal saline (5.0 mL) dosed IP) of the same molecule?
A: Its value is “No Toxicity Observed”.

Q: What about the “Results (toxicity)” value ([1]; T-2: 5,000,000 EU + 0.2g Calcium Stearate + normal saline (5.0 mL) dosed IP, listed as calcium stearate) of the same molecule?
A: The value was “no toxicity or adverse effects”.

Q: What about the “percent of endotoxin recovered” value ([2]; 0.1 grams of calcium stearate and higher, all sources of endotoxin) of the same molecule?
A: Its value is “under 5%”.

Q: What about the “Endotoxin Detected (EU)” value ([2]; Charles River Standard, 0.007 g Calcium Stearate, 8330 EU spiked) of the same molecule?
A: The value was 3995 EU.

Q: And the “Endotoxin Detected (EU)” value [2, 4]?
A: Its value is 1487.5 EU.

Q: What about the “Percent of Endotoxin Detected” value [2, 4] of the same molecule?
A: The value was 17.9%.

Q: What about the “Endotoxin Detected (EU)” value ([2]; Charles River Standard, 0.028 g Calcium Stearate, 8330 EU spiked) of the same molecule?
A: The value was 235 EU.

Q: And the “Endotoxin Detected (EU)” value [2, 5]?
A: Its value is 190.5 EU.

Q: What about the “Percent of Endotoxin Detected” value [2, 5] of the same molecule?
A: The value was 2.3%.

Q: What about the “Endotoxin Detected (EU)” value [2, 6] of the same molecule?
A: Its value is 86.5 EU.

Q: What about the “Percent of Endotoxin Detected” value [2, 6] of the same molecule?
A: The value was 1.0%.

Q: And the “Endotoxin Detected (EU)” value [2, 7]?
A: The value was 38.5 EU.

Q: And the “Percent of Endotoxin Detected” value [2, 7]?
A: Its value is 0.5%.

Q: And the “Endotoxin Detected (EU)” value [2, 8]?
A: The value was 3440 EU.

Q: And the “Percent of Endotoxin Detected” value [2, 8]?
A: Its value is 37.1%.

Q: And the “Endotoxin Detected (EU)” value [2, 9]?
A: Its value is 28.5 EU.

Q: What about the “Percent of Endotoxin Detected” value [2, 9] of the same molecule?
A: The value was 0.3%.

Q: And the “Endotoxin Detected (EU)” value [2, 10]?
A: The value was 960 EU.

Q: What about the “Percent of Endotoxin Detected” value [2, 10] of the same molecule?
A: The value was 22.1%.

Q: And the “Endotoxin Detected (EU)” value [2, 11]?
A: The value was 165 EU.

Q: What about the “Percent of Endotoxin Detected” value [2, 11] of the same molecule?
A: Its value is 3.8%.

Q: What about the “Endotoxin Detected (EU)” value [2, 12] of the same molecule?
A: The value was 70 EU.

Q: And the “Percent of Endotoxin Detected” value [2, 12]?
A: Its value is 1.6%.

Q: What about the “Percent of Endotoxin Detected” value ([2]; RRW, 0.35 g Calcium Stearate, 4340 EU spiked) of the same molecule?
A: The value was 2.6%.

Q: What about the “Endotoxin Detected (EU)” value [2, 13] of the same molecule?
A: Its value is 2780 EU.

Q: What about the “Percent of Endotoxin Detected” value [2, 13] of the same molecule?
A: The value was 25.0%.

Q: What about the “Percent of Endotoxin Detected” value ([2]; SRW, 0.25 g Calcium Stearate, 11100 EU spiked) of the same molecule?
A: Its value is 1.0%.

Q: What about the “Average Percent Change” value ([3]; Sonicated, 5 Day dwell time) of the same molecule?
A: The value was 76%.

Q: And the “Percent Endotoxin Removed” value ([3]; Sonicated, 5 Day dwell time)?
A: Its value is 76%.

Q: What about the “EU After” value ([3]; Sonicated, 5 Day dwell time, EU Before 37,800) of the same molecule?
A: Its value is 9,200 EU.

Q: And the “Average Percent Change” value ([3]; Sonicated, 90 min dwell time)?
A: The value was 61%.

Q: What about the “EU After” value ([3]; Sonicated, 90 min dwell time, EU Before 36,100, listed as Aged Sonicated CaSt #1) of the same molecule?
A: Its value is 15120 EU.

Q: And the “EU After” value ([3]; Sonicated, 90 min dwell time, EU Before 36,100, listed as Aged Sonicated CaSt #2)?
A: Its value is 12,960 EU.

Q: What about the “Percent Endotoxin Removed” value ([3]; Sonicated, 90 min dwell time, listed as Aged Sonicated CaSt #1) of the same molecule?
A: Its value is 58%.

Q: What about the “Percent Endotoxin Removed” value ([3]; Sonicated, 90 min dwell time, listed as Aged Sonicated CaSt #2) of the same molecule?
A: Its value is 64%.

Q: And the “Average Percent Change” value ([3]; Sonicated, Immediate Mixing)?
A: The value was 74%.

Q: And the “EU After” value ([3]; Sonicated, Immediate Mixing, EU Before 36,100, listed as Sonicated CaSt #1)?
A: Its value is 8,960 EU.

Q: And the “EU After” value ([3]; Sonicated, Immediate Mixing, EU Before 36,100, listed as Sonicated CaSt #2)?
A: Its value is 10,240 EU.

Q: And the “Percent Endotoxin Removed” value ([3]; Sonicated, Immediate Mixing, listed as Sonicated CaSt #1)?
A: Its value is 75%.

Q: And the “Percent Endotoxin Removed” value ([3]; Sonicated, Immediate Mixing, listed as Sonicated CaSt #2)?
A: The value was 72%.

Q: What about the “Average Percent Change” value ([3]; Vortexed, 5 Day dwell time) of the same molecule?
A: The value was 64%.

Q: And the “EU After” value ([3]; Vortexed, 5 Day dwell time, EU Before 37,800, listed as Aged Vortexed CaSt #3)?
A: Its value is 15,120 EU.

Q: What about the “EU After” value ([3]; Vortexed, 5 Day dwell time, EU Before 37,800, listed as Aged Vortexed CaSt #4) of the same molecule?
A: Its value is 12,160 EU.

— EP3355943B1, “METHODS AND SYSTEMS FOR TREATING MEDICAL DEVICES AND FLUIDS” (Ethicon, Inc., priority 2015, dated 2017)
